In paper PMC2898382 (The Journal of Biological Chemistry, 2010):

Biological target: T1, purified bovine catalase (Bos taurus, UniProt P00432)
T1 sequence (P00432 2-527): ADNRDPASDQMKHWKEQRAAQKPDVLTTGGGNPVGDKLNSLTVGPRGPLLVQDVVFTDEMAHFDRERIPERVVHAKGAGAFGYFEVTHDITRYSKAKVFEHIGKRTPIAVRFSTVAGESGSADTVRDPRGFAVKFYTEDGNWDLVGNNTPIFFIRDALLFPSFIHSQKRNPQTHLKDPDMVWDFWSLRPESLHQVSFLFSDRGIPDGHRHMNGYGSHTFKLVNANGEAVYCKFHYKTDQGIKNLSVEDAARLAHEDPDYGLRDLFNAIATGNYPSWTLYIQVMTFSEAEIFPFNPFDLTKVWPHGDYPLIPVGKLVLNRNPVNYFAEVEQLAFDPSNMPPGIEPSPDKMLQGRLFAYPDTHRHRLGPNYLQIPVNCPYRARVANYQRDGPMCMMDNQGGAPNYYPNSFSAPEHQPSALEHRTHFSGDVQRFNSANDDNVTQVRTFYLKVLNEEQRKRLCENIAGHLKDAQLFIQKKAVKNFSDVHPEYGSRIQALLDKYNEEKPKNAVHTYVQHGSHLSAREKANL
Assay: H2O2 breakdown at […] nm, global fit to competitive inhibition model
Format: biochemical

Q: With `NC(=O)NO` [Hydroxyurea] as the compound, how does the Ki read?
A: 230 µM
